Test results taken from patent publication US7557101B2, “4,5,6,7-tetrahydro-thieno[3,2-c] pyridine derivatives” (Hoffman-La Roche Inc., priority 2006, dated 2009).

What follows are compounds tested against T1, human H3R (Homo sapiens, UniProt Q9Y5N1) (assay: Competition binding assay with 3H-(R)α-methylhistamine on membranes of the human H3R-CHO cell line). Conditions: competition with 3H(R)α-methylhistamine (1 nM), Ki calculated from IC50 by Cheng-Prusoff.
T1 construct: expressed in transfected cells; host or cells: CHO cells
T1 sequence (Q9Y5N1 whole entry): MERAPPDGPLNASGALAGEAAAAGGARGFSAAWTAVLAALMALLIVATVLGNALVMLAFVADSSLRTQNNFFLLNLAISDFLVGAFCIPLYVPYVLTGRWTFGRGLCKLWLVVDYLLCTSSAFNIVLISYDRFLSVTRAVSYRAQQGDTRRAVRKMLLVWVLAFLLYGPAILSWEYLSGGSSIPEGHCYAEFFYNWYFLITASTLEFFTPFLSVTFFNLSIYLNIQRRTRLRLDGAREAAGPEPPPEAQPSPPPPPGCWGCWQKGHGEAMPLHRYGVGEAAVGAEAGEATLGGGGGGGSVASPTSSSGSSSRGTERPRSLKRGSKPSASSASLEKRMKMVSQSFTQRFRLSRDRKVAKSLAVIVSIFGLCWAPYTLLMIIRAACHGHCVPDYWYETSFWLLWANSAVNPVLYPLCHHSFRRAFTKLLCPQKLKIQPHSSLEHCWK
Procedure: Binding Assay with ^3H—(R)α-methylhistamine
Saturation binding experiments were performed using HR3-(CHO membranes prepared as described in Takahashi, K, Tokita, S., Kotani, H. (2003) J. Pharmacol. Exp. Therapeutics 307, 213-218.
An appropriate amount of membrane (60 to 80 μg protein/well) was incubated with increasing concentrations of ^3H(R)α-Methylhistamine di-hydrochloride (0.10 to 10 nM). Non specific binding was determined using a 200 fold excess of cold (R)α-Methylhistamine dihydrobromide (500 nM final concentration). The incubation was carried out at room temperature (in deep-well plates shaking for three hours). The final volume in each well was 250 μl. The incubation was followed by rapid filtration on GF/B filters (pre-soaked with 100 μl of 0.5% PEI in Tris 50 mM shaking at 200 rpm for two hours). The filtration was made using a cell-harvester and the filter plates were then washed five times with ice cold washing buffer containing 0.5 M NaCl. After harvesting, the plates were dried at 55° C. for 60 min, then we added scintillation fluid (Microscint 40, 40 microl in each well) and the amount of radioactivity on the filter was determined in Packard top-counter after shaking the plates for two hours at 200 rpm at room temperature.
Binding Buffer: 50 mM Tris-HCl pH 7.4 and 5 mM MgCl2×6H2O pH 7.4. Washing Buffer: 50 mM Tris-HCl pH 7.4 and 5 mM MgCl2×6H2O and 0.5 M NaCl pH 7.4.
Indirect measurement of affinity of H3R inverse agonists: twelve increasing concentrations (ranging from 10 μM to 0.3 nM) of the selected compounds were always tested in competition binding experiments using membrane of the human H3R—CHO cell line. An appropriate amount of protein, e.g. approximately 500 cpm binding of RAMH at Kd, were incubated for 1 hour at room temperature in 250 μl final volume in 96-well plates in presence of ^3H(R)α-methylhistamine (1 nM final concentration=Kd). Non-specific binding was determined using a 200 fold excess of cold (R)α-methylhistamine dihydrobromide.
All compounds were tested at a single concentration in duplicate. […] The concentration at which 50% inhibition of the radioligand ^3H(R)α-methylhistamine is obtained (the IC50) is determined from the linear regression of a plot of the logarithm of the concentration versus percent inhibition measured for the different concentrations. Ki's were calculated from IC50 based on Cheng-Prusoff equation (Cheng, Y, Prusoff, W H (1973) Biochem Pharmacol 22, 3099-3108): Ki=IC50/[1+D/Kd] wherein D is the concentration of the radioligand and Kd is the binding constant for the radioligand binding to the receptor under the conditions used in the competition experiment.
Compound `O=C(N1CCOCC1)N1CCc2sc(OCCCN3CCCCC3)cc2C1` [Example 1, Morpholin-4-yl-[2-(3-piperidin-1-yl-propoxy)-6,7-dihydro-4H-thieno[3,2-c]pyridin-5-yl]-methanone] has a Ki of 35.7 nM. With `CCCC(=O)N1CCc2sc(OCCCN3CCCCC3)cc2C1` [Example 33, 1-[2-(3-piperidin-1-yl-propoxy)-6,7-dihydro-4H-thieno[3,2-c]pyridin-5-yl]-butan-1-one] the Ki was 44.4 nM. Work on `O=C(NCc1ccccc1)N1CCc2sc(OCCCN3CCCC3)cc2C1` [Example 48, 2-(3-pyrrolidin-1-yl-propoxy)-6,7-dihydro-4H-thieno[3,2-c]pyridine-5-carboxylic acid benzylamide] yielded a Ki of 31.7 nM. In the case of `Cc1ccccc1S(=O)(=O)N1CCc2sc(OCCCN3CCCC3)cc2C1` [Example 56, 2-(3-pyrrolidin-1-yl-propoxy)-5-(toluene-2-sulfonyl)-4,5,6,7-tetrahydro-thieno[3,2-c]pyridine], the Ki is reported as 27.3 nM. With `CC1CCC(CC(=O)N2CCc3sc(OC4CCN(C(C)C)C4)cc3C2)CC1` (centres unmarked) [Example 90, 1-[2-(1-isopropyl-pyrrolidin-3-yloxy)-6,7-dihydro-4H-thieno[3,2-c]pyridin-5-yl]-2-(4-methyl-cyclohexyl)-ethanone] the Ki was 21.7 nM.
